From patent CN110711192A, “色氨酸增强对革兰氏阴性菌杀菌作用的应用” (Shandong University, priority 2018, dated 2020)
Values after ≈ are worked out from the molar mass of the structure shown.

Legend:
[1] = test system: sensitive strain MG1655 [敏感菌株MG1655]; assay: Minimum inhibitory concentration, sensitive strain MG1655; format: cell-based; settings: Escherichia coli, serial dilution, 96-well plate, broth
[2] = test system: resistant strain EY1 [抗性菌EY1]; assay: Minimum inhibitory concentration, resistant strain EY1; format: cell-based; settings: serial dilution, 96-well plate, broth
[3] = test system: Escherichia coli MG1655 [大肠杆菌MG1655]; assay: Bactericidal effect of antibiotic with or without tryptophan (viable count); format: cell-based
[4] = test system: MG1655; assay: Rate of generation of drug-tolerant bacteria (viable count); format: cell-based, Escherichia coli; settings: cultures of 3 to 9 h; gentamicin 60 mg/L and kanamycin 40 mg/L 5 h, then various tryptophan concentrations 30 min; concentration-dependent; printed as up to (可达)
[5] = test system: MG1655 drug-tolerant bacteria [耐药菌]; assay: Killing of drug-tolerant bacteria (viable count); format: cell-based, Escherichia coli; settings: after gentamicin 60 mg/L or kanamycin 40 mg/L 5 h; then antibiotic + 5 mM tryptophan 5 h; printed as can reach (可以达到)
[6] = test system: MG1655; assay: Intracellular reactive oxygen species (H2DCFDA); format: cell-based, Escherichia coli; settings: log and stationary phase; 60 mg/L gentamicin alone or with 5 mM tryptophan, 1 h
[7] = test system: MG1655; assay: Uptake of Texas Red-labelled gentamicin (flow cytometry); format: cell-based, Escherichia coli; settings: log and stationary phase, 0, 1, 5, 10 mM tryptophan

SMILES | MIC [1] [mg/L] | MIC [2] [mg/L] | increase of bactericidal effect versus group without tryptophan ([3]; 5 mM tryptophan with gentamicin 3 mg/L and MIC 4 mg/L, 24 h, logarithmic phase) [fold] | increase of bactericidal effect ([3]; 5 mM tryptophan with kanamycin 1.5 mg/L to MIC 3.5 mg/L, 24 h, logarithmic phase) | increase of bactericidal efficiency ([3]; stationary phase MG1655, 5 mM tryptophan with gentamicin 60 mg/L or kanamycin 40 mg/L, 1 h per figure legend, 24 h per example) [fold] | reduction of generation of drug-tolerant bacteria [4] | bactericidal efficiency against drug-tolerant bacteria [5] | intracellular reactive oxygen species level [6] | bacterial uptake of antibiotic [7]
NC[C@H]1O[C@H](O[C@H]2[C@H](O)[C@@H](O[C@H]3O[C@H](CO)[C@@H](O)[C@H](N)[C@H]3O)[C@H](N)C[C@@H]2N)[C@H](O)[C@@H](O)[C@@H]1O [卡那霉素] | 3.5 (≈ 7.22 µM) | 220 (≈ 454 µM) |  |  |  |  |  |  | 
N[C@@H](Cc1c[nH]c2ccccc12)C(=O)O [色氨酸] |  |  | 100 | 10-100 fold | ~10 | 10-1000 fold | 80-90% | 能够提高胞内活性氧的水平 | 能够提升细菌对于抗生素的吸收,并呈现剂量依赖性
